Results taken from patent publication US11459339B2, “Biaryl derivative, preparation method thereof and pharmaceutical application thereof” (Abbisko Therapeutics Co., Ltd., priority 2018, dated 2022).

Tests used:
[1] = target: interaction between PD-1 and PD-L1 expressed on cell surfaces (Homo sapiens (Human), UniProt Q9NZQ7); assay: Jurkat reporter gene cellular assay (Jurkat/NF-κB-luc/PD1 cells cocultured with Raji-PD-L1 cells, OKT-3 stimulation); format: cell-based; conditions: NF-κB-luc reporter activation fold, 6 hrs; read-out: Cell Activity EC50
Sequence of interaction between PD-1 and PD-L1 expressed on cell surfaces (Q9NZQ7 19-290): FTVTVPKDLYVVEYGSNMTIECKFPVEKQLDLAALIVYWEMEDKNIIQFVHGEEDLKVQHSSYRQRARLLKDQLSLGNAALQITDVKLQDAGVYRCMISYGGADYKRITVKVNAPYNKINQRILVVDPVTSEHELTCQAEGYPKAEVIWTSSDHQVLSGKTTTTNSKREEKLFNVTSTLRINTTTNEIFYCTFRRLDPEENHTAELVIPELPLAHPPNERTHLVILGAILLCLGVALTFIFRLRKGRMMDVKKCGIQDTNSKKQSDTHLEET
Experimental: B. Jurkat Reporter Gene Cellular Assay
The effect of compounds of the examples of the present invention and positive compounds on the interaction between PD-1 and PD-L1 expressed on cell surfaces, and the related influence on T cell functions, were determined by a Jurkat reporter gene cellular assay.
Briefly, the reporter gene plasmid of NF-κB-luc and the plasmid of human PD-1 were transfected into Jurkat cells to establish a stably transfected cell line capable of stably expressing both PD-1 and NF-κB-Luc reporter genes; the expression level of PD-1 on the cell surface was confirmed by flow cytometry: and the expression of the reporter gene was confirmed via the response of the reporter gene stimulated by OKT-3 and Raiji cells.
In addition, the plasmid of human PD-L1 was transfected into Raji cells to obtain a cell line capable of stably expressing PD-L1. Jurkat/NF-κB-luc/PD1 cells and Raji-PD-L1 cells were then cocultured and stimulated with OKT-3. On this basis, the compounds were added, and the enhancement of the signal pathway of T cell activation by the inhibitory effect of the compounds on the interaction between PD-1 and PD-L1 was evaluated by readings of reporter gene responses. The specific experimental process was as follows:
2. 20 μL of Raji-PD-L1 cell suspension was added to each well with 5*10^4 cells for each well, and was incubated in an incubator for 20 min;
3. 20 μL of Jurkat/NF-κb-luc/PD-1 cell suspension was added to each well with 5*10^4 cells for each well, and well mixed, and 6 hrs later, Bright-glo (Promega, E2620) was applied and plates were read on Envision;
4. the reading of each well treated with the compound was compared with the reading of each well treated with DMSO to obtain the activation fold of the compound; and
5. EC50 values of compounds and positive compounds of the examples of the present invention were determined by non-linear regression analysis of activation folds at different compound concentrations.

[2] = target: interaction between PD-1 and PD-L1 (Homo sapiens (Human), UniProt Q9NZQ7); assay: PD1-PDL1 HTRF binding activity test (Cisbio PD-1/PD-L1 binding assay kit); conditions: read-out: PD1-PDL1 HTRF Binding Activity IC50
Sequence of interaction between PD-1 and PD-L1 (Q9NZQ7 19-238): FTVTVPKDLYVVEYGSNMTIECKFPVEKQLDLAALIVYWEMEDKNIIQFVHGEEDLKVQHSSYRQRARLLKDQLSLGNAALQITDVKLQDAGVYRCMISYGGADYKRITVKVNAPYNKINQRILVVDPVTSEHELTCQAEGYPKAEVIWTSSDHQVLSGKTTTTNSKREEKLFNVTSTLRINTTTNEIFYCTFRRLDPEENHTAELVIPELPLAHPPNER
Experimental: A. PD1-PDL1 HTRF Binding Activity Test
The effect of compounds and positive compounds of the examples of the present invention on the interaction between PD-1 and PD-L1 was determined by the PD-1/PD-L1 binding assay kit from Cisbio (#64ICP01PEG or 64ICP01PEH). The detailed experimental process was as follows:
1. Pre-diluted compound solution, 4 μL of Tag1-PD-L1 and 4 μL of Tag2-PD1 were added to each well of a 384-well plate;
3. After incubated for 2 hrs at room temperature or overnight at 4° C., plates were read on Envision of Pelkin Elmer; and readings at 665 nm and 620 nm were recorded, and the ratio of the two readings was taken as a reading for each well;
4. The reading of each well after compound treatment was compared with the reading of DMSO treated wells to obtain the percent inhibition of the compound; and
5. IC50 values of compounds and positive compounds of the examples of the present invention were determined by non-linear regression analysis of percent inhibition at different compound concentrations.

EC50 [1] | IC50 [2] | Compound
> 10000 nM | 9.55 nM | COC(=O)[C@H]1CCCCN1Cc1cnc(C(=O)Nc2cccc(-c3cccc(NC(=O)c4cc(C)c(CN5CCCC[C@@H]5C(=O)OC)cn4)c3C)c2C)cc1C [Example 28, dimethyl 1,1′-(((((2,2′-dimethyl-[1,1′-biphenyl]-3,3′-diyl)bis (azanediyl))bis(carbonyl))bis (4-methylpyridine-6,3-diyl))bis(methylene))(2R,2′R)-bis (piperidine-2-carboxylate)]
1460 nM | 0.36 nM | Cc1cc(C(=O)Nc2cccc(-c3cccc(NC(=O)c4cc(C)c(CN5CCCC[C@@H]5C(=O)O)cn4)c3C)c2C)ncc1CN1CCCC[C@@H]1C(=O)O [Example 29, (2R,2′R)-1,1′-(((((2,2′-dimethyl-[1,1′-biphenyl]-3,3′-diyl)bis (azanediyl))bis(carbonyl))bis (4-methylpyridine-6,3-diyl))bis(methylene))bis(piperidine-2-carboxylic acid)]
448 nM | 1.24 nM | Cc1cc(C(=O)Nc2cccc(-c3cccc(NC(=O)c4cc(C)c(CN[C@H](CCO)C(=O)O)cn4)c3C)c2C)ncc1CN[C@H](CCO)C(=O)O [Example 30, (2R,2′R)-2,2′-((((((2,2′-dimethyl-[1,1′-biphenyl]-3,3′-diyl)bis(azanediyl))bis(carbonyl))bis(4-methylpyridine-6,3-diyl))bis(methylene))bis(azanediyl)) bis(4-hydroxybutanoic acid)]
2080 nM | 1 nM | COc1cc(C(=O)Nc2cccc(-c3cccc(NC(=O)c4cc(OC)c(CN5CCOCC5)cn4)c3C)c2C)ncc1CN1CCOCC1 [Example 31, N,N′-(2,2′-dimethyl-[1,1′-biphenyl]-3,3′-diyl)bis(4-methoxy-5-(morpholinomethyl)picolinamide)]
53 nM | 0.27 nM | CNCc1cnc(C(=O)Nc2cccc(-c3cccc(NC(=O)c4cc(OC)c(CNC)cn4)c3C)c2C)cc1OC [Example 32, N,N'-(2,2′-dimethyl-[1,1′-biphenyl]-3,3′-diyl)bis(4-methoxy-5-((methylamino)methyl)picolinamide)]
109 nM | 0.65 nM | COc1cc(C(=O)Nc2cccc(-c3cccc(NC(=O)c4cc(OC)c(CNC[C@H](O)CO)cn4)c3C)c2C)ncc1CNC[C@H](O)CO [Example 33, N,N'-(2,2′-dimethyl-[1,1′-biphenyl]-3,3′-diyl)(5((((S)-2,3-dihydroxypropyl)amino)methyl)-4-methoxypicolinamide)]
111 nM | 0.21 nM | COCCNCc1cnc(C(=O)Nc2cccc(-c3cccc(NC(=O)c4cc(OC)c(CNCCOC)cn4)c3C)c2C)cc1OC [Example 34, N,N'-(2,2′-dimethyl-[1,1′-biphenyl]-3,3′-diyl)bis(4-methoxy-5-(((2-methoxyethyl)amino)methyl)picolinamide)]
257 nM | 1.11 nM | COc1cc(C(=O)Nc2cccc(-c3cccc(NC(=O)c4cc(OC)c(CNCCOC(F)F)cn4)c3C)c2C)ncc1CNCCOC(F)F [Example 35, N,N'-(2,2′-dimethyl-[1,1′-biphenyl]-3,3′-diyl)bis(5-(((2-(difluoromethoxy)ethyl)amino)methyl)-4-methoxypicolinamide)]
456 nM | 0.74 nM | COCCN(C)Cc1cnc(C(=O)Nc2cccc(-c3cccc(NC(=O)c4cc(OC)c(CN(C)CCOC)cn4)c3C)c2C)cc1OC [Example 36, N,N'-(2,2′-dimethyl-[1,1′-biphenyl]-3,3′-diyl)bis(4-methoxy-5-(((2-methoxyethyl)(methyl)amino)methyl)picolinamide)]
118 nM | 0.04 nM | COc1cc(C(=O)Nc2cccc(-c3cccc(NC(=O)c4cc(OC)c(CN(C)CCO)cn4)c3C)c2C)ncc1CN(C)CCO [Example 37, N,N'-(2,2′-dimethyl-[1,1′-biphenyl]-3,3′-diyl)bis(5-(((2-hydroxyethyl) (methyl)amino)methyl)-4-methoxypicolinamide)]
7000 nM | 0.83 nM | COc1cc(C(=O)Nc2cccc(-c3cccc(NC(=O)c4cc(OC)c(CNCCOC(C)=O)cn4)c3C)c2C)ncc1CNCCOC(C)=O [Example 38, ((((((2,2′-dimethyl-[1,1′-biphenyl]-3,3′-diyl)bis(azanediyl))bis (carbonyl))bis(4-methoxypyridine-6,3-diyl))bis(methylene))bis (azanediyl))bis(ethane-2,1-diyl) diacetate]
225 nM | 0.86 nM | COc1cc(C(=O)Nc2cccc(-c3cccc(NC(=O)c4cc(OC)c(CNCCNC(C)=O)cn4)c3C)c2C)ncc1CNCCNC(C)=O [Example 39, N,N′-(2,2′-dimethyl-[1,1′-biphenyl]-3,3′-diyl)bis(5-(((2-acetamidoethyl)amino)methyl)-4-methoxypicolinamide)]
172 nM | 0.29 nM | COc1cc(C(=O)Nc2cccc(-c3cccc(NC(=O)c4cc(OC)c(CNCC(C)(C)O)cn4)c3C)c2C)ncc1CNCC(C)(C)O [Example 40, N,N'-(2,2′-dimethyl-[1,1′-biphenyl]-3,3′-diyl)bis(5-(((2-hydroxy-2-methylpropyl)amino)methyl)-4-methoxypicolinamide)]
74 nM | 0.032 nM | COc1cc(C(=O)Nc2cccc(-c3cccc(NC(=O)c4cc(OC)c(CNCC5(O)CC5)cn4)c3C)c2C)ncc1CNCC1(O)CC1 [Example 41, N,N'-(2,2′-dimethyl-[1,1′-biphenyl]-3,3′-diyl)bis(5-((((1-hydroxycyclopropyl)methyl)amino)methyl)-4-methoxypicolinamide)]
60 nM | 0.28 nM | COc1cc(C(=O)Nc2cccc(-c3cccc(NC(=O)c4cc(OC)c(CN[C@H](C)CO)cn4)c3C)c2C)ncc1CN[C@H](C)CO [Example 42, N,N'-(2,2′-dimethyl-[1,1′-biphenyl]-3,3′-diyl)bis(5-((((R)-1-hydroxypropan-2-yl)amino)methyl)-4-methoxypicolinamide)]
11 nM | 0.29 nM | COc1cc(C(=O)Nc2cccc(-c3cccc(NC(=O)c4cc(OC)c(CN[C@@H](C)CO)cn4)c3C)c2C)ncc1CN[C@@H](C)CO [Example 43, N,N'-(2,2′-dimethyl-[1,1′-biphenyl]-3,3′-diyl)bis(5-((((S)-1-hydroxypropan-2-yl)amino)methyl)-4-methoxypicolinamide)]
55 nM | 0.24 nM | COc1cc(C(=O)Nc2cccc(-c3cccc(NC(=O)c4cc(OC)c(CN[C@H]5CCC[C@@H]5O)cn4)c3C)c2C)ncc1CN[C@H]1CCC[C@@H]1O [Example 44, N,N'-(2,2′-dimethyl-[1,1′-biphenyl]-3,3′-diyl)bis(5-((((1S,2S)-2-hydroxycyclopentyl)amino)methyl)-4-methoxypicolinamide)]
41 nM | 0.22 nM | COc1cc(C(=O)Nc2cccc(-c3cccc(NC(=O)c4cc(OC)c(CN5CC(O)C5)cn4)c3C)c2C)ncc1CN1CC(O)C1 [Example 45, N,N'-(2,2′-dimethyl-[1,1′-biphenyl]-3,3′-diyl)bis(5-((3-hydroxyazetidin-l-yl)methyl)-4-methoxypicolinamide)]
46 nM | 0.27 nM | COc1cc(C(=O)Nc2cccc(-c3cccc(NC(=O)c4cc(OC)c(CN5CC[C@@H](O)C5)cn4)c3C)c2C)ncc1CN1CC[C@@H](O)C1 [Example 47, N,N'-(2,2′-dimethyl-[1,1′-biphenyl]-3,3′-diyl)bis(5-(((R)-3-hydroxypyrrolidin-1-yl)methyl)-4-methoxypicolinamide)]
102 nM | 0.31 nM | COc1cc(C(=O)Nc2cccc(-c3cccc(NC(=O)c4cc(OC)c(CN5CC[C@H](O)C5)cn4)c3C)c2C)ncc1CN1CC[C@H](O)C1 [Example 48, N,N'-(2,2′-dimethyl-[1,1′-biphenyl]-3,3′-diyl)bis(5-(((S)-3-hydroxypyrrolidin-1-yl)methyl)-4-methoxypicolinamide)]
104 nM | 0.33 nM | COc1cc(C(=O)Nc2cccc(-c3cccc(NC(=O)c4cc(OC)c(CN5CCC(O)CC5)cn4)c3C)c2C)ncc1CN1CCC(O)CC1 [Example 49, N,N'-(2,2′-dimethyl-[1,1′-biphenyl]-3,3′-diyl)bis(5-((4-hydroxypiperidin-l-yl)methyl)-4-methoxypicolinamide)]
